Source: article PMC6332026, “Synthesis and Pharmacochemistry of New Pleiotropic Pyrrolyl Derivatives” (Molecules, 2015)
Entries after “also recorded” stand apart in the source; their conditions may differ. Marks after values point to notes of the source that are not given here.

Assays:
[1] = test system: carrageenan-induced rat paw edema; assay: Inhibition of rat paw edema induced by carrageenan; assay type: in vivo, Fischer 344 rats; conditions: intraperitoneally, 3.5 h; for inhibition in vivo at 10 µmol/kg: Rattus norvegicus, ip, 0.01 mmol/kg body weight, read-out: CPE % inhibition of rat paw edema induced by carrageenan
Procedure: The pyrrolyl derivatives, as well as their precursor chalcones were tested in vivo for the inhibition of rat paw edema induced by carrageenan. […] […]. For Compounds 2i, 2iii, 2iv and 2v, we determined their ED50 values. […]. The finding supports the primary idea of this design.
Edema was induced in the right hind paw of Fischer 344 rats (150–200 g). In the study, both males and females were included, with the exemption of pregnant females. The animals, which have been bred in our laboratory, were housed under standard conditions and received a diet of commercial food pellets and water ad libitum during maintenance. One hour before the onset of the experiment, food and water were removed. The tested compounds (dose 0.01 mmol/kg body weight) were diluted in water with a few drops of Tween 80, and they were administered intraperitoneally simultaneously with the intradermal injection of 0.1 mL 2% of carrageenan in water. The animals were euthanatized 3.5 h after the carrageenan administration. The difference between the weight of injected and uninjected paws was calculated for each animal and was compared to control animals, which were treated with water. Indomethacin was used as a reference compound in 0.01 mmol/kg. The results were expressed as the percent inhibition of the edema (CPE %).

trypsin = biological target: T1, trypsin (Bos taurus, UniProt P00760); assay: Inhibition of the proteolytic activity of trypsin; assay type: biochemical; conditions: bovine albumin substrate, pH 7.6; read-out: TP IC50 (inhibition of trypsin)
T1 construct: purchased Sigma Chemical, Co. (St. Louis, MO, USA); host or cells: bovine pancreas
T1 sequence (P00760 24-246): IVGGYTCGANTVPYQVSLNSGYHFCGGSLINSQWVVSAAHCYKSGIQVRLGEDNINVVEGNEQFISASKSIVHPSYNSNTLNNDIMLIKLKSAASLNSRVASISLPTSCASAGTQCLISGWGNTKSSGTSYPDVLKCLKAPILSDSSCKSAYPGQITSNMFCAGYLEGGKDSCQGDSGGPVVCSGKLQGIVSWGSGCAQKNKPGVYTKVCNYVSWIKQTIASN
Text: Trypsin is an enzyme with an active role in inflammation. Thus, we studied the anti-proteolytic ability of the pyrrole derivatives, using salicylic acid as a reference compound. […] Comparing Compounds 2iv and 2v, the insertion of an electron-acceptor substituent (Cl) on the phenyl ring (substituent Ar^2) and the simultaneous increase of the volume of substituent Ar^2 (expressed as molar refractivity) led to an enhancement of the anti-proteolytic activity.
Carrageenan, type K, was commercially available. Cycloxygenase-2 (COX-2) and interleukin-6 (IL-6) EIA Kit, Item No. 583371 were purchased from Cayman. Trolox was obtained from Aldrich Chemical Co. (Milwaukee, WI, USA). All starting materials were obtained from commercial sources, and they were used without further purification.
The tested compounds (concentrations varying from 10 μΜ–100 μΜ in DMSO) were dissolved in a phosphate buffer (0.1 M K2HPO4–NaH2PO4·2H2O, pH = 7.6), and 0.2 mL of trypsin 0.075 mg/mL were added. The mixture was incubated at room temperature for 20 min, and then, 1 mL of bovine albumin (6 g/100 mL) was added. The mixture was incubated at 37 °C for 30 min. The reaction was stopped with the addition of 1 mL of trichloroacetic acid (5% w/w) Separation of the phases followed, with measurement of the supernatants at 280 nm at room temperature. IC50 values were determined.

[2] = Inhibition of heme-dependent lipid peroxidation of linoleic acid (TBA method); conditions: pH 7.4, 37 °C; read-out: LP IC50 (inhibition of heme-dependent lipid peroxidation of linoleic acid)
Procedure: The anti-lipid peroxidation activity was determined through the inhibition of heme-dependent lipid peroxidation. The peroxidation of sodium linoleate is induced from a mixture of heme and hydrogen peroxide, which produces free radicals from the side chains of amino acids. The assay is performed at pH 7.4 with a phosphate buffer, and the products of peroxidation are identified with the thiobarbituric acid method (TBA). In particular, malonic dialdehyde, a final product of lipid peroxidation, reacts with TBA and forms a colored product, whose absorbance is measured at 535 nm. […] Compounds 2ii and 2vi with low Clog P values are weak inhibitors of lipid peroxidation. It seems that the increase of volume of Ar^1, measured as molar refractivity MR (Ar^1), enhances IC50 values and reduces the inhibitory activity (2i and 2iii; and 2ii, 2iv and 2vi). For derivatives 2iv and 2v, the presence of an electron-acceptor, e.g., a chloro-substituent on the phenyl ring (Ar^2), diminishes the anti-lipid peroxidation activity.
Firstly, 0.4 mL of heme (50 μΜ), 0.25 mL of sodium linoleate (400 μΜ), 0.1 mL of the solutions of the tested compounds (concentrations varying from 10–100 μΜ in DMSO) and 0.25 mL of H2O2 (500 μΜ) were incubated for 10 min in 37 °C in a phosphate buffer (KH2PO4–KOH 50 mM, pH 7.4). The peroxidation products were identified with the reaction of thiobarbituric acid, by adding successively 0.5 mL of 40% trichloroacetic acid (TCA) and 0.5 mL of 2% of thiobarbituric acid (TBA). The addition was followed by stirring and heating at 90 °C for 20 min, and then, 1 mL of acetic acid and 1 mL of chloroform were added and the absorbance measured at 535 nm. IC50 values were determined.

COX-2 = biological target: T2, COX-2 (Homo sapiens, UniProt P35354); assay: Inhibition of cycloxygenase-2 (colorimetric TMPD assay); conditions: for inhibition at 100 µM: read-out: COX-2 % inhibition; for COX-2 % inhibition: 100 μM
T2 sequence (P35354 18-604): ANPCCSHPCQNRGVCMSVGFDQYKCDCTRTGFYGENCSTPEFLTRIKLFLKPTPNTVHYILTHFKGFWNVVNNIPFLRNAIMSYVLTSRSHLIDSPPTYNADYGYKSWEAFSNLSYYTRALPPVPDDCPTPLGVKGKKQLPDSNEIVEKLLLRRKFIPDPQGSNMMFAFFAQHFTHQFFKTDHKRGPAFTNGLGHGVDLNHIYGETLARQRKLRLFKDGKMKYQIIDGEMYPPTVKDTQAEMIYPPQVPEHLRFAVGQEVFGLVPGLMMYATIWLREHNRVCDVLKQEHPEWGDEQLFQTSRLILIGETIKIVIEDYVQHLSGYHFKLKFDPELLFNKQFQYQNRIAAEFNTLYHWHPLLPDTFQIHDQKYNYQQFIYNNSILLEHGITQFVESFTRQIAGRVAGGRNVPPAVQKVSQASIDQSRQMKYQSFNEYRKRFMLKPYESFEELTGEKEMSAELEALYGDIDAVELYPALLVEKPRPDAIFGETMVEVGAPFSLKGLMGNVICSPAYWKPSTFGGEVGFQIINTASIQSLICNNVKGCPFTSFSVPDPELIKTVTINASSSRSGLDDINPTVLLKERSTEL
Procedure: The inhibition of COX-2, as a peroxidase, was determined by a colorimetric assay with the oxidation of N,N,N′,N′-tetramethyl-p-phenylenediamine (TMPD).
COX-2 inhibitory activity was determined by using arachidonic acid (AA) as a substrate in buffer (0.1 M Tris pH 8.5) and TMPD as a co-substrate.

Row | IC50 (trypsin) | IC50 [2] | melting point | Structure (SMILES) | ED50 (carrageenan rat paw edema) [1] | inhibition at 100 µM (COX-2) | inhibition in vivo at 10 µmol/kg [1] | COX-2 % inhibition (COX-2)
1 | 60 µM | 40 µM | 165 to 166 °C | O=C(c1cccs1)c1c[nH]cc1-c1cccc(Oc2ccccc2)c1 [Compound 2i, [4-(3-Phenoxyphenyl)-1H-pyrrol-3-yl](thien-2-yl)methanone] | 0.061 ^c mmol/kg Body Weight | 67.2% | – | –
2 | 9 µM | 100 µM | 233 to 235 °C | O=C(c1cccs1)c1c[nH]cc1-c1ccc(OCc2ccc(Br)cc2)cc1 [Compound 2iii, (4-{4-[(4-Bromobenzyl)oxy]phenyl}-1H-pyrrol-3-yl)(thien-2-yl)methanone] | 0.052 mmol/kg Body Weight | – | 89% | inactive; also recorded: without any activity
3 | 65 µM | 72 µM | 270 to 272 °C | O=C(c1ccccc1)c1c[nH]cc1-c1cccc2ccccc12 [Compound 2iv, [4-(Naphth-1-yl)-1H-pyrrol-3-yl](phenyl)methanone] | – | – | 75% | inactive

Row | Structure (SMILES) | IC50 (trypsin) | IC50 [2] | melting point | ED50 (carrageenan rat paw edema) [1] | inhibition at 100 µM (COX-2) | inhibition in vivo at 10 µmol/kg [1] | COX-2 % inhibition (COX-2)
4 | O=C(c1ccc(Cl)cc1)c1c[nH]cc1-c1cccc2ccccc12 [Compound 2v, (4-Chlorophenyl)[4-(naphth-1-yl)-1H-pyrrol-3-yl]methanone] | 8 µM | 150 µM | 285 to 286 °C | 0.063 mmol/kg Body Weight | 81% | 78% | –
